In US5457030A, “Method and composition for determining antimicrobial susceptibility of the majority clinically significant Gram postitive organism” (MicroScan, Inc., priority 1993, dated 1995):
Converted amounts (≈) assume the structure as drawn. Like-named read-outs stand apart in the source and are kept apart here.

Experiments:
Enterococcus faecalis [1] = experiment: Percent fluorescence (growth) in wells containing antimicrobial agents, Example 1 (Table 6); type: cell-based; details: for activity at 32 µg/mL: 32 μg/mL
Description: (§1) A primary inoculum suspension of a bacterial isolate in saline-pluronic, equivalent to a 0.5 McFarland turbidity standard is prepared. The final inoculum suspension is prepared by diluting a 0.3 ml aliquot of the primary suspension in 25 ml of Rapid Pos Inoculum Broth (B1015-14, Baxter Diagnostics Inc., MicroScan Division, West Sacramento, Calif.). A 115 μl of the final inoculum is added to the growth compartment which contains dried material of fluorogenic enzyme substrates equivalent to 0.023 mM leucine-7-amido-4-methylcoumarin, 0.012 mM phenylalanine-7-amido-4-methylcoumarin and 0.058 mM methylumbelliferyl phosphate and 1.15 mM HEPES buffer at pH 7.0. The final inoculum is also added to a number of compartments containing dried material identical to that in the growth well and different concentrations of an antimicrobial agent. An aliquot of the final inoculum is also added to a compartment, containing only dried HEPES buffer, acting as a control. The inoculated multicompartment device (panel) is inserted in the autoSCAN®-W/A. The fluorescence of each compartment is measured at predetermined times and a Growth Index is calculated by dividing the fluorescence of the growth compartment by that of the negative control compartment.
^FL growth - ^FL control
(§2) If the value of the Growth Index is equal to or exceeds a specified value, the Minimum Inhibitory Concentration for every antimicrobial agent present in the multicompartment device is calculated. Otherwise the device is returned to its position and measured again at the next read time. The read times in this example are 3.5, 4.5, 5.5, 7.0, 8.0, 11.0, and 15.0 hours. For calculation of minimum inhibitory concentration, the percent fluorescence of compartments containing the different concentrations of the antimicrobial agent is calculated by subtracting from each compartment the fluorescence of the control well and dividing it by the delta fluorescence of the growth compartment, obtained by subtracting the fluorescence of the negative control compartment from the fluorescence of the growth compartment. The minimum inhibitory concentration is calculated using a mathematical model specific for each concentration range of the antimicrobial agent. Using a mathematical model based on discriminate functional analysis, the minimum inhibitory concentration of each antimicrobial agent, for the organism tested, can be determined. Utilization of a discriminate function analysis model in microbiological pattern recognition is described in S. Bascomb, Computers in Taxonomy and Systematics, p. 65-102 In T. N. Bryant and J. W. T. Wimpenny (Ed.), Computers in Microbiology, a Practical Approach (IRL Press, Oxford). In an alternative embodiment the minimum inhibitory concentration for each antimicrobial agent for the organism tested can be determined by a breakpoint or threshold method or linear regression analysis. J. McKie, et al., Antimicrobial Agents and Chemotherapy (1980) v. 17, 813-823.
(§3) In Example 1, the growth of Enterococcus faecalis in wells containing specified amounts of antimicrobial agents is estimated by measurement of fluorescence. In Table 6, the percent fluorescence at different concentrations of antimicrobial agents is reported. For example, 0.12, 0.25, 0.5, 1, 2, 4 and 8 μg/mL of ampicillin (Am) were present in the microdilution wells.
The numbers 105, 105, 67, 7, 6, 5, 6 are percent fluorescence values as calculated in […]. These figures are used to determine susceptibility according to the methods discussed on pages 12 and 13.

Enterococcus faecalis [2] = experiment: Minimum inhibitory concentration determination, Example 1 (Table 7); type: cell-based
Description: as §1, §2, §3
In Table 7, the minimum inhibitory concentration for Example 1 are reported.

[3] = Enterococcus faecalis, read-out: percent fluorescence
[4] = Enterococcus faecalis, read-out: concentration at which organism was found to be susceptible
[5] = Enterococcus faecalis, read-out: minimum inhibitory concentration
[6] = Enterococcus faecalis, 4 μg/mL, read-out: percent fluorescence
[7] = Enterococcus faecalis, 8 μg/mL, read-out: percent fluorescence
[8] = Enterococcus faecalis, 16 μg/mL, read-out: percent fluorescence
[9] = Enterococcus faecalis, Table 7, Example 1, read-out: concentration at which organism was found to be susceptible
[10] = Table 7, Enterococcus faecalis, Example 1, read-out: minimum inhibitory concentration
[11] = Enterococcus faecalis, 1 μg/mL, read-out: percent fluorescence
[12] = Enterococcus faecalis, 2 μg/mL, read-out: percent fluorescence
[13] = Enterococcus faecalis, .25 μg/mL, read-out: percent fluorescence
[14] = Enterococcus faecalis, Table 7, Example 1, read-out: concentration at which organism was found to be resistant

| Compound | activity at 2 µg/mL (Enterococcus faecalis [1]; [3]) | activity at 4 µg/mL (Enterococcus faecalis [1]; [3]) | MIC (Enterococcus faecalis [2]; [4]) | MIC (Enterococcus faecalis [2]; [5]) | activity at 4 µg/mL (Enterococcus faecalis [1]; [6]) | activity at 8 µg/mL (Enterococcus faecalis [1]; [7]) | MIC (Enterococcus faecalis [2]; [10]) | activity at 8 µg/mL (Enterococcus faecalis [1]; [3]) | also measured |
| --- | --- | --- | --- | --- | --- | --- | --- | --- | --- |
| O=C(O)c1cn(C2CC2)c2cc(N3CCNCC3)c(F)cc2c1=O [Ciprofloxacin] | 6% | 6% | < 1 µg/mL | < 1 µg/mL |  |  |  |  | activity at 1 µg/mL (Enterococcus faecalis [1]; [3]): 6% |
| CO/N=C(\C(=O)N[C@@H]1C(=O)N2C(C(=O)O)=C(COC(C)=O)CS[C@H]12)c1csc(N)n1 [Cefotaxime] |  |  |  |  | 10% | 8% | > 4 µg/mL |  | activity at 16 µg/mL (Enterococcus faecalis [1]; [8]): 8%; activity at 32 µg/mL (Enterococcus faecalis [1]; Enterococcus faecalis): 7%; MIC (Enterococcus faecalis [2]; [9]): < 4 µg/mL |
| CC1(C)S[C@@H]2[C@H](NC(=O)Cc3ccccc3)C(=O)N2[C@H]1C(=O)O [Penicillin] | 12% | 7% |  |  |  |  |  | 7% | activity at 0.03 µg/mL (Enterococcus faecalis [1]; [3]): 99%; activity at 0.06 µg/mL (Enterococcus faecalis [1]; [3]): 104%; activity at 0.12 µg/mL (Enterococcus faecalis [1]; [3]): 105%; activity at 0.5 µg/mL (Enterococcus faecalis [1]; [3]): 105%; activity at 1 µg/mL (Enterococcus faecalis [1]; [3]): 93%; activity at 25 µg/mL (Enterococcus faecalis [1]; [3]): 105% |
| CO/N=C(\C(=O)N[C@@H]1C(=O)N2C(C(=O)O)=C(CSc3nc(=O)c(=O)[nH]n3C)CS[C@H]12)c1csc(N)n1 [Ceftriaxone] |  |  |  |  | 15% | 9% |  |  | activity at 16 µg/mL (Enterococcus faecalis [1]; [8]): 8%; activity at 32 µg/mL (Enterococcus faecalis [1]; Enterococcus faecalis): 7% |
| CC1(C)S[C@@H]2[C@H](NC(=O)[C@H](N)c3ccccc3)C(=O)N2[C@H]1C(=O)O [Ampicillin] |  |  |  |  | 5% | 6% | 0.5 µg/mL (≈ 1.43 µM) |  | activity at 1 µg/mL (Enterococcus faecalis [1]; [11]): 7%; activity at 2 µg/mL (Enterococcus faecalis [1]; [12]): 6%; activity at 0.12 µg/mL (Enterococcus faecalis [1]; Enterococcus faecalis, .12 μg/mL, read-out: percent fluorescence): 105%; activity at 0.25 µg/mL (Enterococcus faecalis [1]; [13]): 105%; activity at 0.5 µg/mL (Enterococcus faecalis [1]; Enterococcus faecalis, .5 μg/mL, read-out: percent fluorescence): 67%; MIC (Enterococcus faecalis [2]; [9]): 0.5 µg/mL (≈ 1.43 µM) |
| O=C1CN(/N=C/c2ccc([N+](=O)[O-])o2)C(=O)N1 [Nitrofurantoin] |  |  |  |  |  |  | < 32 µg/mL |  | activity at 32 µg/mL (Enterococcus faecalis [1]; Enterococcus faecalis): 86%; activity at 46 µg/mL (Enterococcus faecalis [1]; Enterococcus faecalis, 46 μg/mL (printed 46Fd)): 21%; MIC (Enterococcus faecalis [2]; [9]): < 32 µg/mL |
| CCn1cc(C(=O)O)c(=O)c2cc(F)c(N3CCNCC3)cc21 [Norfloxacin] |  |  |  |  | 6% | 6% | < 4 µg/mL |  | MIC (Enterococcus faecalis [2]; [9]): < 4 µg/mL |
| CO[C@H]1/C=C/O[C@@]2(C)Oc3c(C)c(O)c4c(O)c(c(/C=N/N5CCN(C)CC5)c(O)c4c3C2=O)NC(=O)/C(C)=C\C=C\[C@H](C)[C@H](O)[C@@H](C)[C@@H](O)[C@@H](C)[C@H](OC(C)=O)[C@@H]1C [Rifampin] | 21% |  | 2 µg/mL (≈ 2.43 µM) | 2 µg/mL (≈ 2.43 µM) |  |  |  |  | activity at 1 µg/mL (Enterococcus faecalis [1]; [3]): 58% |
| O=C(N[C@H](CO)[C@H](O)c1ccc([N+](=O)[O-])cc1)C(Cl)Cl [Chloramphenicol] |  | 9% | < 4 µg/mL | < 4 µg/mL |  |  |  | 6% | activity at 16 µg/mL (Enterococcus faecalis [1]; [3]): 4% |
| Cc1onc(-c2ccccc2)c1C(=O)N[C@@H]1C(=O)N2[C@@H]1SC(C)(C)[C@@H]2C(=O)O [Oxacillin] | 99% | 95% |  |  |  |  |  | 90% | activity at 0.25 µg/mL (Enterococcus faecalis [1]; [3]): 103%; activity at 0.5 µg/mL (Enterococcus faecalis [1]; [3]): 98%; activity at 1 µg/mL (Enterococcus faecalis [1]; [3]): 100% |
| Gentamicin |  |  |  |  |  |  |  |  | percent fluorescence (Enterococcus faecalis [1]; 1 μg/mL): 105%; percent fluorescence (Enterococcus faecalis [1]; 2 μg/mL): 99%; percent fluorescence (Enterococcus faecalis [1]; 4 μg/mL): 95%; percent fluorescence (Enterococcus faecalis [1]; 6 μg/mL): 93%; percent fluorescence (Enterococcus faecalis [1]; 8 μg/mL): 93% |
| CC(=O)OCC1=C(C(=O)O)N2C(=O)[C@@H](NC(=O)Cc3cccs3)[C@H]2SC1 [Cephalothin, Cephalotin] |  |  | 16 µg/mL (≈ 40.4 µM) | 16 µg/mL (≈ 40.4 µM) |  |  |  | 103% | activity at 16 µg/mL (Enterococcus faecalis [1]; [3]): 7% |
| CN[C@H](CC(C)C)C(=O)N[C@H]1C(=O)N[C@@H](CC(N)=O)C(=O)N[C@H]2C(=O)N[C@H]3C(=O)N[C@H](C(=O)N[C@H](C(=O)O)c4cc(O)cc(O)c4-c4cc3ccc4O)[C@H](O)c3ccc(c(Cl)c3)Oc3cc2cc(c3O[C@@H]2O[C@H](CO)[C@@H](O)[C@H](O)[C@H]2O[C@H]2C[C@](C)(N)[C@H](O)[C@H](C)O2)Oc2ccc(cc2Cl)[C@H]1O [Vancomycin] | 5% | 5% | < 2 µg/mL | < 2 µg/mL |  |  |  | 5% | activity at 16 µg/mL (Enterococcus faecalis [1]; [3]): 2% |
| Cc1nnc(SCC2=C(C(=O)O)N3C(=O)[C@@H](NC(=O)Cn4cnnn4)[C@H]3SC2)s1 [Cefazolin] |  |  |  |  | 102% | 104% | > 16 µg/mL |  | activity at 2 µg/mL (Enterococcus faecalis [1]; [12]): 105%; activity at 16 µg/mL (Enterococcus faecalis [1]; [8]): 100%; MIC (Enterococcus faecalis [2]; [14]): > 16 µg/mL |
| CCC[C@@H]1C[C@@H](C(=O)N[C@@H]([C@H]2O[C@H](SC)[C@H](O)[C@@H](O)[C@H]2O)[C@H](C)Cl)N(C)C1 [Clindaimycin, Clindamycin] |  |  |  |  |  |  | > 2 µg/mL |  | activity at 1 µg/mL (Enterococcus faecalis [1]; [11]): 75%; activity at 2 µg/mL (Enterococcus faecalis [1]; [12]): 71%; activity at 5 µg/mL (Enterococcus faecalis [1]; Enterococcus faecalis, 5 μg/mL (printed 5Cd)): 83%; activity at 0.25 µg/mL (Enterococcus faecalis [1]; [13]): 88%; MIC (Enterococcus faecalis [2]; [14]): > 2 µg/mL |
| Cn1nnnc1SCC1=C(C(=O)O)N2C(=O)[C@@H](NC(=O)[C@H](O)c3ccccc3)[C@H]2SC1 [Cefamandole] |  |  |  |  |  | 104% | > 16 µg/mL |  | activity at 16 µg/mL (Enterococcus faecalis [1]; [8]): 105%; MIC (Enterococcus faecalis [2]; [14]): > 16 µg/mL |
| CO/N=C(\C(=O)N[C@@H]1C(=O)N2C(C(=O)O)=C(COC(N)=O)CS[C@H]12)c1ccco1 [Cefuroxime] |  |  |  |  | 39% | 15% | > 16 µg/mL |  | activity at 2 µg/mL (Enterococcus faecalis [1]; [12]): 85%; activity at 16 µg/mL (Enterococcus faecalis [1]; [8]): 10%; MIC (Enterococcus faecalis [2]; [14]): > 16 µg/mL |
| C[C@@H](O)[C@H]1C(=O)N2C(C(=O)O)=C(SCCN=CN)C[C@H]12 [Imipenem] |  |  |  |  | 5% | 5% | 4 µg/mL (≈ 13.4 µM) |  | activity at 1 µg/mL (Enterococcus faecalis [1]; [11]): 65%; activity at 2 µg/mL (Enterococcus faecalis [1]; [12]): 5%; MIC (Enterococcus faecalis [2]; [9]): 4 µg/mL (≈ 13.4 µM) |
| CN(C)C1C(=O)C(C(N)=O)=C(O)C2(O)C(=O)C3=C(O)c4c(O)cccc4C(C)(O)C3CC12 (centres unmarked) [Tetracycline] | 79% | 71% | 128 µg/mL (≈ 288 µM) | 128 µg/mL (≈ 288 µM) |  |  |  | 62% | activity at 0.5 µg/mL (Enterococcus faecalis [1]; [3]): 91%; activity at 1 µg/mL (Enterococcus faecalis [1]; [3]): 85%; activity at 128 µg/mL (Enterococcus faecalis [1]; [3]): 37% |
